Laboratory results published in patent publication US5877202A, “Indole derivatives useful to treat estrogen-related neoplasms and disorders” (priority 1996, dated 1999).

What was measured:
MCF-7 tumors = experiment: Inhibition of growth of MCF-7 tumors implanted in nu/nu mice; type: in vivo, female nu/nu mice; details: for tumor volume: n = 5, in mm³
[1] = system: MCF-7 human breast tumor cells; experiment: Inhibition of growth of MCF-7 human breast tumor cells; type: cell-based; details: MCF7, MCF-7 cells, medium with 0.001 mg/ml insulin
estrogen receptor mRNA = experiment: Reduction of estrogen receptor mRNA levels in treated MCF-7 human breast tumor cells; type: cell-based;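 for Estrogen Receptor mRNA band intensity: Phosphoimager intensity of radioactive mRNA bands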
Procedure: (§1) After treatment with 30 μM drug for 24 hr, total RNA is isolated according to the guanidinium isothiocyanate method using an RNA preparation kit from 5 Prime-3 Prime, Inc., following the manufacturer's instructions. The RNA is separated by formaldehyde gel electrophoresis and transferred to a nylon membrane.

MCF-7 estrogen receptor = target: T1, MCF-7 estrogen receptor (Homo sapiens, UniProt P03372); experiment: Competitive binding assay, Relative Binding Affinities on binding of estradiol to MCF-7 estrogen receptor
T1 construct: estrogen receptor extracted from MCF-7 human breast tumor cells; endogenous in cells; host or cells: MCF-7 human breast cancer cells (nuclear extract, cytosol or whole cell extract)
T1 sequence (P03372 1-595): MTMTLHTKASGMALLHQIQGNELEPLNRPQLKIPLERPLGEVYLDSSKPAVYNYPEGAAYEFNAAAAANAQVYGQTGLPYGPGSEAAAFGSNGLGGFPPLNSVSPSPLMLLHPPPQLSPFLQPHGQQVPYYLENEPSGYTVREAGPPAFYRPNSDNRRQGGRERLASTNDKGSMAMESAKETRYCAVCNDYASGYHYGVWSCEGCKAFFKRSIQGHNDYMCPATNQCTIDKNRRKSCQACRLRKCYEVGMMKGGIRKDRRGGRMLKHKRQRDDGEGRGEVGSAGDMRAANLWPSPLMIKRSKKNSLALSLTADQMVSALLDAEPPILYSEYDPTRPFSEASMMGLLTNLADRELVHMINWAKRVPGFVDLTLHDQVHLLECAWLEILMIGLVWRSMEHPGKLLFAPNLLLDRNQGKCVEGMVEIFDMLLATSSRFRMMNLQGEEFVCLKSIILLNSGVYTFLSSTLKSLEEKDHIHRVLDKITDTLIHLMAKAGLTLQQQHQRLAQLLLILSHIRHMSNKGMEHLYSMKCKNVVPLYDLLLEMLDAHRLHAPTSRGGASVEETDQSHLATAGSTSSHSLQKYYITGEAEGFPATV
Procedure: Briefly, RBAs are determined from competitive binding assays with several concentrations of estradiol (E2) with and without test compound. After 16-18 hours of incubation at 4 degrees C., unbound [^3 H] E2 is separated from ER-bound [^3 H] E2. The IC50 is determined and the RBA is calculated as: […]

[2] = system: tamoxifen-resistant LY-2 cells; experiment: Inhibition of growth of tamoxifen-resistant LY-2 cells; type: cell-based; details: medium with 0.001 mg/ml insulin
[3] = target: T2, estrogen receptor binding to an estrogen response element (Homo sapiens, UniProt P03372); experiment: Inhibition of estrogen receptor binding to an estrogen response element in DNA mobility shift assays; type: biochemical, human (nuclear extract of MCF-7 human breast cancer cells)
T2 construct: estrogen receptor extracted from MCF-7 human breast tumor cells; endogenous in cells; host or cells: MCF-7 human breast cancer cells (nuclear extract, cytosol or whole cell extract)
T2 sequence (P03372 1-595): T1 sequence (P03372 1-595)
Procedure: Monolayers of MCF-7 human breast cancer cells are rinsed once with HBSS and scraped off culture dishes into 15 ml conical tubes with 5 ml HBSS. The cells are sedimented by centrifugation at 250×g for five minutes, suspended in 1 ml HBSS and sedimented by centrifugation at 2000 rpm in a tabletop centrifuge for five minutes in a 1.5 ml microfuge tube. Two PCV of a solution of a lysis buffer (25 mM HEPES, pH 7.8, 50 mM KCl, 0.5% Nonidet P 40, 2 mM dithiothreitol, 0.2 mM phenylmethylsulfonyl fluoride, 0.05 mg/ml leupeptin, 0.05 mg/ml aprotinin, 0.0025 mg/ml pepstatin, 0.005 mg/ml antipain) are added and cells are kept on ice for 15 minutes. Lysed cells are centrifuged for 3 minutes at 10,000×g, supernatant decanted, and kept as the cytosol fraction. Pellets are suspended in two PCV of extraction buffer (25 mM HEPES, pH 7.8, 500 mM KCl, 10% glycerol, 2 mM dithiothreitol and the above protease inhibitors), mixed for 20 minutes by inversion at 4 degrees C. and centrifuged at 10,000×g for 20 minutes. The supernatant is decanted and saved as nuclear extract. Both the nuclear extract and the cytosol are dialyzed for two hours against dialysis buffer (25 mM HEPES, pH 7.8, 50 mM KCl, 10% glycerol, 2 mM dithiothreitol and the above protease inhibitors). Nuclear and cytosol fractions are stored frozen at -80 degrees C. until used for mobility shift assays or determination of estrogen receptor content.
Briefly, to each reaction tube was added 0.01 mg nuclear extract, 2 μg poly dIdC, 50 mM NaCl, 1 mM dithiothreitol and 10 mM Tris, pH 7.5 in a total volume of 0.01 ml and the mixture was kept at room temperature for 10 minutes. A ^32 P-labelled estrogen response element [ERE]

GAPDH mRNA = GAPDH mRNA levels in treated MCF-7 human breast tumor cells (positive control probe); type: cell-based; details: 30 μM, 24 hr;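 note: Phosphoimager intensity of radioactive mRNA bands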
Procedure: as §1

[4] = read-out: integrated volume of shifted ERE oligo as percentage of control, given as % inhibition

CCCCN(C)C(=O)CCCCCCCNC(=O)Cc1c(C)n(C(=O)c2ccc(Cl)cc2)c2ccc(O)cc12 [MDL 101,906, 8-[[5-Hydroxy-1-(4-chlorobenzoyl)-2-methyl-1H-indol-3-yl]-acetylamino]-octanoic acid methyl-butyl-amide]
tumor volume (MCF-7 tumors; 10 mg/kg i.p., day 14 after tumor implantation): 49 ± 18
tumor volume (MCF-7 tumors; 10 mg/kg i.p., day 22 after tumor implantation): 111 ± 36
tumor volume (MCF-7 tumors; 10 mg/kg i.p., day 29 after tumor implantation): 155 ± 43
tumor volume (MCF-7 tumors; 10 mg/kg i.p., day 36 after tumor implantation): 255 ± 70
tumor volume (MCF-7 tumors; 20 mg/kg i.p., day 14 after tumor implantation): 58 ± 9
tumor volume (MCF-7 tumors; 20 mg/kg i.p., day 22 after tumor implantation): 140 ± 16
tumor volume (MCF-7 tumors; 20 mg/kg i.p., day 29 after tumor implantation): 197 ± 30
tumor volume (MCF-7 tumors; 20 mg/kg i.p., day 36 after tumor implantation): 282 ± 38
tumor volume (MCF-7 tumors; 50 mg/kg i.p., day 14 after tumor implantation): 77 ± 14
tumor volume (MCF-7 tumors; 50 mg/kg i.p., day 22 after tumor implantation): 143 ± 13
tumor volume (MCF-7 tumors; 50 mg/kg i.p., day 29 after tumor implantation): 178 ± 53
tumor volume (MCF-7 tumors; 50 mg/kg i.p., day 36 after tumor implantation): 291 ± 79
tumor volume (MCF-7 tumors; 100 mg/kg i.p., day 14 after tumor implantation): 56 ± 10
tumor volume (MCF-7 tumors; 100 mg/kg i.p., day 22 after tumor implantation): 81 ± 16
tumor volume (MCF-7 tumors; 100 mg/kg i.p., day 29 after tumor implantation): 110 ± 24
tumor volume (MCF-7 tumors; 100 mg/kg i.p., day 36 after tumor implantation): 170 ± 41
tumor volume over time, dose dependence (MCF-7 tumors; 10 to 100 mg/kg i.p.): dose-dependent decrease in the tumor volume over time
decrease in tumor volume over control (MCF-7 tumors; highest dose (100 mg/kg), 36 days after tumor implantation): 55%
size of the tumors compared to control mice (MCF-7 tumors; intraperitoneal injections, suspension in 20% DMSO/water): reduced the size of the tumors compared to control mice
IC50 [1]: 3.8 µM
ER/GAPDH mean (estrogen receptor mRNA; 30 μM, 24 hr, mean of replicates 1 and 2): 0.53
ER/GAPDH (estrogen receptor mRNA; 30 μM, 24 hr, replicate 1): 0.98
Estrogen Receptor mRNA band intensity (estrogen receptor mRNA; 30 μM, 24 hr, replicate 1): 5,142
ER/GAPDH (estrogen receptor mRNA; 30 μM, 24 hr, replicate 2): 0.38
Estrogen Receptor mRNA band intensity (estrogen receptor mRNA; 30 μM, 24 hr, replicate 2): 1,916
activity at 30 µM (estrogen receptor mRNA; Homo sapiens, MCF7, 24 h, read-out: ER/GAPDH % Control): 18%
inhibition of estradiol binding to MCF-7 ER (MCF-7 estrogen receptor; doses of 100 or 200 nM): did not significantly inhibit
inhibition of estradiol binding to MCF-7 ER (MCF-7 estrogen receptor; typically, at doses of 100 or 200 nM): less than 10%
IC50 [2]: 4.7 µM
IC50 [3]: 8.5 µM
inhibition at 2 µM [3, 4]: 81%
inhibition at 5 µM [3, 4]: 76%
inhibition at 10 µM [3, 4]: 46%
inhibition at 20 µM [3, 4]: 38%
GAPDH mRNA band intensity (GAPDH mRNA; replicate 1): 5,227
GAPDH mRNA band intensity (GAPDH mRNA; replicate 2): 5,077
